Assay results as given in ChEMBL document CHEMBL3751832, “Synthesis, in vitro and computational studies of 1,4-disubstituted 1,2,3-triazoles as potential α-glucosidase inhibitors” (Bioorg Med Chem Lett, 2016).
Structures can show the parent of a compound that is named as a salt.

Experiment: Inhibition of yeast type-3 alpha-glucosidase using p-nitrophenyl-alpha-D-glucopyranoside as substrate after 30 mins
Set-up: species or system Saccharomyces cerevisiae

Row | SMILES | IC50
1 | O=[N+]([O-])c1ccc(-n2cc(-c3ccccc3)nn2)cc1 | 235 µM
2 | COC(=O)Cn1cc(-c2ccccc2)nn1 | 255 µM
3 | OC1(c2cn(-c3ccccc3Cl)nn2)CCCCC1 | 370 µM
4 | Clc1ccccc1-n1cc(-c2ccccc2)nn1 | 57.2 µM
5 | N#Cc1cc([N+](=O)[O-])ccc1-n1cc(C2(O)CCCCC2)nn1 | 49.7 µM
6 | O=[N+]([O-])c1ccc(-n2cc(C3(O)CCCCC3)nn2)cc1 | 320 µM
7 | CC(=O)c1cccc(-n2cc(C3(O)CCCCC3)nn2)c1 | 320 µM
8 | COc1cccc(-n2cc(C3(O)CCCCC3)nn2)c1 | 245 µM
9 | CC(=O)c1cccc(-n2cc(-c3ccccc3)nn2)c1 | 265 µM
10 | CC(=O)c1ccccc1-n1cc(-c2ccccc2)nn1 | 313 µM
11 | OC[C@H]1NC[C@H](O)[C@@H](O)[C@@H]1O [DUVOGLUSTAT HYDROCHLORIDE] | 3.49 µM
